Test results as given in patent US20210330736A1 (UNIVERSITEIT VAN AMSTERDAM, priority 2018, published 2021).

Experiments:
[1] = tested on: Ser40 phosphorylation of Th in HEK cells transfected with Th; test: Th Ser40 phosphorylation in HEK cells transfected with Th (western blot); format: cell-based; details: HEK-293 transfected with Th, low concentrations (1 μM)
Protocol: FIG. 3. HEK cells are a suitable model to study GUCY2C-induced Ser40 phosphorylation. (A) RT-qPCR data from intact HEK extracts. Input material was 10 ng of total RNA. Cp corresponds to the cycle number in which the expression starts to be considered positive. (−) represents the water control, which is negative in every case. (B) HEK cultures were transfected with Th and treated with a cGMP analogue 48 hours post-plating. Changes in Ser40 phosphorylation were studied. The graph represents the statistical analysis (n=6; Mean±SEM). Unpaired Student's t-test (p-value: ****<0.0001). Hereon, ‘Fold Change’ corresponds to the ratio P-Ser40/Total Th.
FIG. 7. PDE2a is an important effector regulating Ser40 phosphorylation in MN9D cells. BAY-60-7550 dose-curve and representative examples in MN9D (n=9, red) and HEK cells (n=4, blue) (Mean±SEM). Cells were treated with various concentrations of BAY 60-7750 and analyzed for Th phosphorylation on Ser40 , total Th and actin.
HEK cells were maintained in 100-mm Petri dishes and grown in DMEM medium supplemented with L-glutamine, penicillin-streptomycin (Pen&Strep) and 10% heat-inactivated fetal bovine serum (HIFBS). Growing conditions were 37° C. and 5% CO2. For every-other-day passages, HEK cultures were split at a 1:3 dilution. From Friday to Monday, the split proportion was doubled for all cell lines. For passaging, cultures were rinsed with PBS and incubated with 1 mL of trypsin during 5 minutes. Cells were resuspended in growth medium and finally split to the proper dilution. The experiments were performed in 12-well plates. For immunocytochemistry analysis, sterile 18-mm coverslips were added prior to the plating. 500 !μL of cell resuspension was seeded in each well. If experiments were to be performed 48 hours after the plate preparation, 1:5 was the seeding ratio for HEK cells. When the experiments took place 96 hours post-plating, 1:7 was the working dilution for HEK cells. Unless otherwise stated, HEK cultures were processed 96 hours post-plating.
HEK cells were transfected using the calcium-phosphate method. […]

GUCY2C R792S mutant = molecular target: T1, GUCY2C R792S mutant (Homo sapiens, UniProt P25092, R792S); test: Th Ser40 phosphorylation in HEK cells co-transfected with Th and GUCY2C R792S gain-of-function mutant versus wt; format: cell-based; details: HEK co-transfected with Th and wt or R792S GUCY2C, guanylin treatment
T1 construct: expressed in transfected cells; host or cells: HEK cells, co-transfected with Th
Protocol: FIG. 5. […] (A) HEK cultures were treated with guanylin, in the presence or absence of IBMX. […] Unpaired Student's t-test (p-values: ****<0.0001, **<0.01, *<0.05). (B) HEK cells were co-transfected with Th and either the wt GUCY2C or a gain-of-function mutant (R792S). Ser40 phosphorylation was studied following guanylin treatment (G). […] Unpaired Student's t-test (p-values: ***<0.001, **<0.01).
HEK cells were transfected using the calcium-phosphate method. 12-well plates were refreshed with 500 μL of growth medium before transfection. […] The plasmid mixture was taken into a final concentration of 250 mM CaCl2 in a total volume of 110 μL. A complementary tube was filled with 110 μL of HEPES-buffered saline 2X (HEBS 2X: 1.5 mM Na2HPO4, 50 mM HEPES pH 7.05, 280 mM NaCl). The tube with CaCl2 was pipetted drop-wise into the HEBS and mixed gently. After 60 seconds of incubation, 55 µL of the final mixture was added to each well. […]
Up to 35 μL of sample was loaded in each slot and run in the presence of tris-glycine buffer and 0.1% SDS. […] After additional washings during 1 hour, blots were exposed to an enhanced chemiluminescence solution and the signal was detected using an Odyssey imager (LI-COR). […] For graph quantifications, ‘Fold Change’ represents the ratio P-Ser40/Total Th. Statistical comparisons between pair of groups correspond to unpaired Student's t-tests, as calculated with GraphPad Prism. […]

T1 sequence (P25092 24-1073 R792S): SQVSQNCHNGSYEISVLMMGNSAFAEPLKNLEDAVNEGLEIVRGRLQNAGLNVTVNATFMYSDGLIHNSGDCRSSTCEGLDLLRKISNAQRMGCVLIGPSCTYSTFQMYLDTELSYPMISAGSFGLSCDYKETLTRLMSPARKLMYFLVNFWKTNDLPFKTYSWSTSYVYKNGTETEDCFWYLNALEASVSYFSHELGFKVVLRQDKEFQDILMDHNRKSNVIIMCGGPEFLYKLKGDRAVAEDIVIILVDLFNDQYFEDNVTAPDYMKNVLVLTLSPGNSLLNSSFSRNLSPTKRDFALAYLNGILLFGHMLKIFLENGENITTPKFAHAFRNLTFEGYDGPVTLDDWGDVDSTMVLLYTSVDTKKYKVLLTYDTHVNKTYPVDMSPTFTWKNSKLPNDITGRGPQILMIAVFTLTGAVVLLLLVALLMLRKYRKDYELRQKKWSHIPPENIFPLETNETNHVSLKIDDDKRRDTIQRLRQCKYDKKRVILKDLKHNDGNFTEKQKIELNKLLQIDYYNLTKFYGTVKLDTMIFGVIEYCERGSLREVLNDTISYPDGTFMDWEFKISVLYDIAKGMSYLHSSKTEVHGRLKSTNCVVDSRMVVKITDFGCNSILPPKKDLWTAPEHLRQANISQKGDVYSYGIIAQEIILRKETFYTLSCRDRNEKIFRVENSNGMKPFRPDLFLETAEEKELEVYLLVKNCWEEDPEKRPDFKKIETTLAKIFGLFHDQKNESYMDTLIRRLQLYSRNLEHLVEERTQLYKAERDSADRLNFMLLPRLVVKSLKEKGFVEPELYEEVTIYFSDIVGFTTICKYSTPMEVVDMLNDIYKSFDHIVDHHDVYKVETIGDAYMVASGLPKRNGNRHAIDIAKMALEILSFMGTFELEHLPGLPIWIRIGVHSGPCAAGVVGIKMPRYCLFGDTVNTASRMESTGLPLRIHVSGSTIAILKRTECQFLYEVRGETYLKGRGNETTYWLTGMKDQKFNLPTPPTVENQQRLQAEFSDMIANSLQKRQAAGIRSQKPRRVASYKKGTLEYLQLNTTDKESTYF

COc1ccc(Cc2nn3c([C@@H](CCCc4ccccc4)[C@@H](C)O)nc(C)c3c(=O)[nH]2)cc1OC [BAY 60-7550]
effect on Ser40 phosphorylation in HEK cells [1]: hardly exhibit any effect
effect on Ser40 phosphorylation in HEK cells ([1]; listed as BAY 60-7750): almost no effect

guanylin: natural agonistic ligand of GUCY2C, 15 amino acid polypeptide; commercially available rat/mouse guanylin (Chemcruz) (PNTCEICAYAACTGC) [reference compound]
boost in Ser40 phosphorylation with R792S mutant compared to the wt receptor (GUCY2C R792S mutant): 1.5 fold
